From US10730887B2, “Compound containing tricyclic heteroaryl group” (Hangzhou Innogate Pharma Co., Ltd., priority 2016, dated 2020)

Assays:
Format in all cases: biochemical
FLT3 = target: T1, FLT3 (Homo sapiens, UniProt P36888); experiment: FLT3 kinase activity inhibition, Caliper mobility shift assay
T1 sequence (P36888 27-993): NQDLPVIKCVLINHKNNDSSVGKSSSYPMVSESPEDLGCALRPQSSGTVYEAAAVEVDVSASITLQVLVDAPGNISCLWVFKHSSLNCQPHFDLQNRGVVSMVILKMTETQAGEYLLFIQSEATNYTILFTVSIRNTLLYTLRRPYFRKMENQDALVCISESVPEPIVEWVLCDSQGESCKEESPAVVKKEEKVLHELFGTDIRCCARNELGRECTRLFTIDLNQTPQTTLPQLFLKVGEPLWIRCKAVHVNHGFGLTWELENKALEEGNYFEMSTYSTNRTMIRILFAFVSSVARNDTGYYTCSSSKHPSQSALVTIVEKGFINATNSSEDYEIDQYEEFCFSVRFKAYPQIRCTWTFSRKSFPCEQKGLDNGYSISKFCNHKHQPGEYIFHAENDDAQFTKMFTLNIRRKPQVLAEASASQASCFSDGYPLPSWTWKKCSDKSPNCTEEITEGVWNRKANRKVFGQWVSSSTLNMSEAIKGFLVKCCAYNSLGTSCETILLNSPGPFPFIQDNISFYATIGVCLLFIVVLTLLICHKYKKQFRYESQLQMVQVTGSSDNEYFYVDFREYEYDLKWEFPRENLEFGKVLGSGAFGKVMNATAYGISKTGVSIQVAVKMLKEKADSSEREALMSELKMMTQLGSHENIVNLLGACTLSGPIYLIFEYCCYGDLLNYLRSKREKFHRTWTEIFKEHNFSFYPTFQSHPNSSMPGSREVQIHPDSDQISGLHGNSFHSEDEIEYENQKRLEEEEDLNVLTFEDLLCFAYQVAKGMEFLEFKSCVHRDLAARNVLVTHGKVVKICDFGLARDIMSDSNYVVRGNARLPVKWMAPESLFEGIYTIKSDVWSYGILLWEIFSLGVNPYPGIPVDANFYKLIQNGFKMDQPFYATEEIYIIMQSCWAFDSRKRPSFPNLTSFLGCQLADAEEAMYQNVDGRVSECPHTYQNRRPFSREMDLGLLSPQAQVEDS
Description: FLT3 protein kinase activity was measured using the Caliper mobility shift assay. The compound was dissolved in DMSO and diluted with a kinase buffer (50 mM HEPES, pH 7.5, 0.0015% Brij-35, 2 mM DTT), and 5 μL of a 5-fold final concentration of the compound (10% DMSO) was added to a 384-well plate. After adding 10 μL of 2.5-fold FLT3 enzyme solution, incubate for 10 minutes at room temperature, and then add 10 μL of a 2.5-fold substrate (FAM-labeled polypeptide and ATP) solution. After incubation at 28° C. for 60 minutes, the reaction was stopped by adding 25 μL of stop solution (100 mM HEPES, 0.015% Brij-35, 0.2% Coating Reagent #3, 50 mM EDTA, pH 7.5). Conversion rate data was read on a Caliper EZ Reader II (Caliper Life Sciences). The conversion rate was converted into inhibition rate data (% inhibition rate=(max−conversion rate)/(max−min)*100). Where max is the conversion of the DMSO control and min is the conversion of the enzyme-free control Curves were plotted with compound concentration and inhibition rate on the horizontal and vertical coordinates, and the curve was fitted using XLFit excel add-in version 4.3.1 software and IC50 was calculated.

Axl = target: T2, Axl (Homo sapiens, UniProt P30530); experiment: Axl kinase activity inhibition, Caliper mobility shift assay
T2 sequence (P30530 26-894): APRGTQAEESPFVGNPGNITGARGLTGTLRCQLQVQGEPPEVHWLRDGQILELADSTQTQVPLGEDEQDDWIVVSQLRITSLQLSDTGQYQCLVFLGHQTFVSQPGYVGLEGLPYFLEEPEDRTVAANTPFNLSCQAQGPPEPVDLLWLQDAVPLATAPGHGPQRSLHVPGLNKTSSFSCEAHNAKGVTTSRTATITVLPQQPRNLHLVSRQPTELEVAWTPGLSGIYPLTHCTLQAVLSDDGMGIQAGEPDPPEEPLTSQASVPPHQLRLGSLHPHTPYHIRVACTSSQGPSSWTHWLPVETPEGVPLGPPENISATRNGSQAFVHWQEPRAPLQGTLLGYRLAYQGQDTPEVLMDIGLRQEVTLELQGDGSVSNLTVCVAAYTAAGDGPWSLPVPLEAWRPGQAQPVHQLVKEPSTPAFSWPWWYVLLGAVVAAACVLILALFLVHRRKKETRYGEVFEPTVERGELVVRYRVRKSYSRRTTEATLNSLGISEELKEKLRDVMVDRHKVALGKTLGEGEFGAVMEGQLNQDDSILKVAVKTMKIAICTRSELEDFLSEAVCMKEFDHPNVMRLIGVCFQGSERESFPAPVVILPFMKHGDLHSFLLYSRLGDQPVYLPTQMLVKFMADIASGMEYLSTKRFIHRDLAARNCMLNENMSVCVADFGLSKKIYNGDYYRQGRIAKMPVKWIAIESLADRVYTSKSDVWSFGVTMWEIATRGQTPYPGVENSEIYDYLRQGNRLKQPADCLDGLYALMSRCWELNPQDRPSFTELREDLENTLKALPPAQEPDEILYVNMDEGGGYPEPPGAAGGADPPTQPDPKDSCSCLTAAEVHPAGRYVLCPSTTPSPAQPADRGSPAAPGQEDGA
Description: Axl protein kinase activity was determined using the Caliper mobility shift assay. The compound was dissolved in DMSO and diluted with kinase buffer (50 mM HEPES, pH 7.5, 0.0015% Brij-35, 2 mM DTT), and 5 μL of 5 times the final concentration of the compound (10%) was added to the 384-well plate. DMSO). After adding 10 μL of a 2.5-fold Axl enzyme solution, incubate for 10 minutes at room temperature, and then add 10 μL of a 2.5-fold substrate (FAM-labeled polypeptide and ATP) solution. After incubation at 28° C. for 60 minutes, the reaction was stopped by the addition of […] stop solution (100 mM HEPES, 0.015% Brij-35, 0.2% Coating Reagent #3, 50 mM EDTA, pH 7.5). Conversion rate was read on a Caliper EZ Reader II (Caliper Life Sciences). The conversion rate was converted into inhibition rate (% inhibition rate=(max−conversion rate)/(max−min)*100). Where max is the conversion of the DMSO control and min is the conversion of the enzyme-free control. Curves were plotted with compound concentration and inhibition rate on the horizontal and vertical coordinates, and the curve was fitted using XLFit excel add-in version 4.3.1 software and IC50 was calculated.

FAK = FAK (Homo sapiens, UniProt Q05397); experiment: FAK kinase activity inhibition, Latha screen analysis
Description: FAK protein kinase activity was determined by Latha screen analysis. The compound was dissolved in DMSO and diluted with kinase buffer (25 mM HEPES, pH 7.5, 0.01 mM Triton, 10 mM MgCl2, 0.5 mM EGTA, 0.01% BRIJ-35, 2 mM DTT), 2.5 μL was added to the 384-well plate 4 times the final concentration of the compound (4% DMSO). After adding 5 μL of 2-fold FAK enzyme solution, incubate for 10 minutes at room temperature, and then add 2.5 μL of 4 times substrate (Fluorescein-polyGT and ATP) solution. After incubating for 30 minutes at 25° C., 10 μL of the detection solution (antibody of phosphorylation site 2 nM and EDTA 10 mM) was added to terminate the reaction. The data emitted at […] and emitted at 520 nm was read from Envision, and the luminescence reading data was copied from the Envision program, and the value of the luminescence reading was converted to the percent inhibition by a formula. The conversion rate was converted into inhibition rate data (% inhibition rate=(max−conversion rate)/(max−min)*100). “min” is the control fluorescence reading for the reaction without enzyme: “max” is the fluorescence reading of the sample with DMSO added as a control. Curves were plotted with compound concentration and inhibition rate on the horizontal and vertical coordinates, and the curve was fitted using XLFit excel add-in version 4.3.1 software and IC50 was calculated.

FAK, sequence (Q05397 whole entry, species assumed): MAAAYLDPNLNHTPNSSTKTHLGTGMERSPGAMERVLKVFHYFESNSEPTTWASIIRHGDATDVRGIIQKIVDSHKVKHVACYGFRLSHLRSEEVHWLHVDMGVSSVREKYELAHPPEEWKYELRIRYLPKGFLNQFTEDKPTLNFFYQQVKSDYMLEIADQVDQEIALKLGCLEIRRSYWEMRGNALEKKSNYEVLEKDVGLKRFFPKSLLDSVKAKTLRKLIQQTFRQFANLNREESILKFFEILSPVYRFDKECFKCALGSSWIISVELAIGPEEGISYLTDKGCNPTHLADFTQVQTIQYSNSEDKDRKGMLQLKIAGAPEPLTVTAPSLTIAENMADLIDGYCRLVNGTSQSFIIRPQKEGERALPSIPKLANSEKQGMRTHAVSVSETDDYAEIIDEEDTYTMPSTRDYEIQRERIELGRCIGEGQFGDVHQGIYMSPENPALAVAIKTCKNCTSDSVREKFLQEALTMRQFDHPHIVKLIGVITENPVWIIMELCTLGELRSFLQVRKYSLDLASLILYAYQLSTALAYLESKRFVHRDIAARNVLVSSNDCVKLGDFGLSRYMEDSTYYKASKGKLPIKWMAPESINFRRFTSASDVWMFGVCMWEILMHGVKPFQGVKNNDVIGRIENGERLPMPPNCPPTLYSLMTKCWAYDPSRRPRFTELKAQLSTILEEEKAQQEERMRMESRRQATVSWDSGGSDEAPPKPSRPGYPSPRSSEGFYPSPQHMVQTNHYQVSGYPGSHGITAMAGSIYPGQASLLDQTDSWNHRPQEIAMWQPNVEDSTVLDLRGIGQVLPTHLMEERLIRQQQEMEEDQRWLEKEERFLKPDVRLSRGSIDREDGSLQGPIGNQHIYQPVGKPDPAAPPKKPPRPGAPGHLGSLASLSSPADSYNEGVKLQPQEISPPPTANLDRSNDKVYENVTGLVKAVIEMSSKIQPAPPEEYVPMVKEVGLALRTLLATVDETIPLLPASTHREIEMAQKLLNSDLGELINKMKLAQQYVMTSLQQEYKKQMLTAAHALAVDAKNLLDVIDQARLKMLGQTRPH

Row | SMILES | IC50 (FLT3) [nM] | IC50 (Axl) [nM] | IC50 (FAK) [nM]
1 | CCc1nc(C(N)=O)c(Nc2ccc3c(c2)OC[C@H]2CN(C)CCN32)nc1NC1CCOCC1 [Compound D1R] | < 1 | < 10 | –
2 | CCc1nc(C(N)=O)c(Nc2ccc3c(c2)OC[C@@H]2CN(C)CCN32)nc1NC1CCOCC1 [Compound D1S] | < 1 | < 10 | –
3 | CCc1nc(C(N)=O)c(Nc2ccc3c(c2)OC[C@H]2CN(C4CCN(C)CC4)CCN32)nc1NC1CCOCC1 [Compound D6R] | < 1 | < 10 | –
4 | CNC(=O)c1ccccc1Nc1cc(Nc2ccc3c(c2)OC[C@H]2CN(C)CCN32)ncc1C(F)(F)F [Compound E1R] | – | – | < 1
5 | CNC(=O)c1ccccc1Nc1cc(Nc2ccc3c(c2)OC[C@@H]2CN(C)CCN32)ncc1C(F)(F)F [Compound E1S] | – | – | < 1
6 | CNC(=O)c1ccccc1Nc1cc(Nc2ccc3c(c2)OCC2COCCN32)ncc1C(F)(F)F (stereo not drawn) [Compound E1] | – | – | < 1
